Data from ChEMBL document CHEMBL1201862, “PubChem BioAssay data set” (2004).
The source made the active and inactive calls.

Columns and labels:
BJ [1] = assay: BJ-TERT fibroblast viability loss – cell-based, RAS-independent, luminescence, dose response (AID 1933); type: functional; conditions: Homo sapiens
BJ [2] = assay: cells; type: functional, cell-based; conditions: Homo sapiens
[3] = target: Luciferin 4-monooxygenase (Photinus pyralis, UniProt P08659); assay: inhibition of purified Photinus pyralis luciferase – biochemical, luminescence, dose response (AID 1891)
Sequence of Luciferin 4-monooxygenase (P08659 whole entry): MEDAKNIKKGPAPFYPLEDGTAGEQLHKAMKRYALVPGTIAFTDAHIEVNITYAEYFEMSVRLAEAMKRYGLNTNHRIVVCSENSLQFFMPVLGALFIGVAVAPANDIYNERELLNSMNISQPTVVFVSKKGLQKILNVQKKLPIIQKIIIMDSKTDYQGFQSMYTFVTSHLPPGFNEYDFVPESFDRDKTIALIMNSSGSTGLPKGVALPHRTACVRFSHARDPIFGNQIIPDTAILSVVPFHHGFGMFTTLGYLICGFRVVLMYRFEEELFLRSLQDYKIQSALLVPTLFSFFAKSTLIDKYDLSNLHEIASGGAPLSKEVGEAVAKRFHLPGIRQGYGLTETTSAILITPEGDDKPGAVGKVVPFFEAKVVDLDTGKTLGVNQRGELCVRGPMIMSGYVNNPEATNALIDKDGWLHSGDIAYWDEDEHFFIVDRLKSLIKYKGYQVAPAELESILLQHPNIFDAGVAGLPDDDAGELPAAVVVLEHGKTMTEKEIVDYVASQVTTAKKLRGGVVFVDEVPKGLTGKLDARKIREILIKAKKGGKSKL

[4] = Luminescence Cell-Based Dose Confirmation HTS to Identify Inhibitors of Platelet Dense Granule Release. [Related pubchem assays: 1663 (Primary HTS), 1678 (Summary of Project)]; type: functional
BJ [5] = assay: BJ-TERT-LT-ST fibroblast viability loss – cell-based, RAS-independent, luminescence, dose response (AID 1935); type: functional; conditions: Homo sapiens;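 further: BJ fibroblasts immortalized with TERT plus LT and ST oncogenes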
[6] = DRD fibroblast viability loss – cell-based, non-viral oncogenic, luminescence, dose response (AID 1934); type: functional; conditions: Homo sapiens
[7] = ADP-Glo luciferase signal interference – biochemical, luminescence, cherry-picked samples, set 2, artefact control for CDK5 inhibitor project, dose response (AID 504546); type: functional, cell-based
[8] = target: Cyclin-dependent kinase 5/CDK5 activator 1 (Homo sapiens, UniProt Q00535); assay: blockade of human CDK5 activity – biochemical, cherry-picked samples, set 2, dose response (AID 504545)
Sequence of Cyclin-dependent kinase 5/CDK5 activator 1 (Q00535 whole entry): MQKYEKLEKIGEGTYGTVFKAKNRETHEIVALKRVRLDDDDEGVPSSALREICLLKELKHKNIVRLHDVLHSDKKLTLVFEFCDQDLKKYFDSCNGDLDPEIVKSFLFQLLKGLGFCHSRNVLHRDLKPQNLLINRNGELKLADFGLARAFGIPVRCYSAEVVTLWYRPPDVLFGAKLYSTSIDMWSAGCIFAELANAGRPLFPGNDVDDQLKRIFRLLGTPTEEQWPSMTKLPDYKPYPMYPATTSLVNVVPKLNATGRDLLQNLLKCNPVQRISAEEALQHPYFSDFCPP
Sequence of Cyclin-dependent kinase 5/CDK5 activator 1 (Q15078 whole entry, further chain): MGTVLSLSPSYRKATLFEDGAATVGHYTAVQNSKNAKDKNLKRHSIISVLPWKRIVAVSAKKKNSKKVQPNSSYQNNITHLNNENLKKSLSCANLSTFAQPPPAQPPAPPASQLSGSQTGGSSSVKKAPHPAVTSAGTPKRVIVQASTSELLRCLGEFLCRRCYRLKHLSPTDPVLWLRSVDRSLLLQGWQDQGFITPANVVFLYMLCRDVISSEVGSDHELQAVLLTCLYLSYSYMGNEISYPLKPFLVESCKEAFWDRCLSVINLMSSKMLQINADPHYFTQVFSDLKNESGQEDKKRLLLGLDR

HEK293 = assay: EBV LMP1 TES2 canonical NF-kB signalling blockers – cell-based, HEK293, luciferase, cherry-pick, dose response (AID 588343); type: functional; conditions: Homo sapiens
BJ [9] = assay: growth inhibition of engineered Ras-driven BJ cells – cell-based, alamar blue fluorescence, cherrypicked samples, dose response (AID 2631); type: functional; conditions: Homo sapiens;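 further: confirmatory dose-response assay in RAS-dependent BJ fibroblasts engineered with TERT, LT and ST, with cytotoxicity read by fluorescence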
[10] = target: T1, Eukaryotic translation initiation factor 4H (Homo sapiens, UniProt Q15056); assay: eIF4H binding inhibition – biochemical, uHTS, fluorescence polarization, translation initiation inhibitor project, primary screen (AID 2012)
[11] = target: T2, Polyadenylate-binding protein 1 (Homo sapiens, UniProt P11940); assay: blockers of PABP interaction with poly(A) – biochemical, fluorescence polarization, […] (AID 2014)
T2 sequence (P11940 whole entry): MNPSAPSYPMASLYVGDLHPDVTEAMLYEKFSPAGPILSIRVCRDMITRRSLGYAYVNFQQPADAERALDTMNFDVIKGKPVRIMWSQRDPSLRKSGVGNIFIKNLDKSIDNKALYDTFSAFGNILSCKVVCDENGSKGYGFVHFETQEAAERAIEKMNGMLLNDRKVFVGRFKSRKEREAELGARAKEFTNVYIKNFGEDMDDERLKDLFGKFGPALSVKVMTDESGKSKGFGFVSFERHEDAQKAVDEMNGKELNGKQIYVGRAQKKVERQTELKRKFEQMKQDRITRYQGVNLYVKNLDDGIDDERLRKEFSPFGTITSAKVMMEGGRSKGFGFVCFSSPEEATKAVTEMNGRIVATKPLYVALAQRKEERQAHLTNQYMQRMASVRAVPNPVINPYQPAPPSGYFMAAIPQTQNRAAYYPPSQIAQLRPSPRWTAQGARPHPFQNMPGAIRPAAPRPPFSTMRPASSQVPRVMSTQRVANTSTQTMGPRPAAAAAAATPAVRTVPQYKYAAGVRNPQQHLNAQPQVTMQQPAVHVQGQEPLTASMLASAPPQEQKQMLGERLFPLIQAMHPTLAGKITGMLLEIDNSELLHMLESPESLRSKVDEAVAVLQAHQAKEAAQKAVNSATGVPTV

[12] = target: T3, DNA dC->dU-editing enzyme APOBEC-3A (Homo sapiens, UniProt P31941); assay: Dose Response confirmation of small molecule APOBEC3A DNA Deaminase Inhibitors via a fluorescence-based single-stranded DNA deaminase assay. [Related pubchem assays (depositor defined):AID493011, AID493024]; type: functional
T3 sequence (P31941 whole entry): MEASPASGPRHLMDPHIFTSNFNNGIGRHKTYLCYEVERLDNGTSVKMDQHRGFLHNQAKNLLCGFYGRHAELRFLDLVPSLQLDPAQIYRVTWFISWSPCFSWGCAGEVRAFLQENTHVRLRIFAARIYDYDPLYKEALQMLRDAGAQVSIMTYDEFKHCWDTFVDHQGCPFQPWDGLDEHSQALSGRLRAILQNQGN

[13] = target: T4, DNA dC->dU-editing enzyme APOBEC-3G (Homo sapiens, UniProt Q9HC16); type: functional
T4 sequence (Q9HC16 whole entry): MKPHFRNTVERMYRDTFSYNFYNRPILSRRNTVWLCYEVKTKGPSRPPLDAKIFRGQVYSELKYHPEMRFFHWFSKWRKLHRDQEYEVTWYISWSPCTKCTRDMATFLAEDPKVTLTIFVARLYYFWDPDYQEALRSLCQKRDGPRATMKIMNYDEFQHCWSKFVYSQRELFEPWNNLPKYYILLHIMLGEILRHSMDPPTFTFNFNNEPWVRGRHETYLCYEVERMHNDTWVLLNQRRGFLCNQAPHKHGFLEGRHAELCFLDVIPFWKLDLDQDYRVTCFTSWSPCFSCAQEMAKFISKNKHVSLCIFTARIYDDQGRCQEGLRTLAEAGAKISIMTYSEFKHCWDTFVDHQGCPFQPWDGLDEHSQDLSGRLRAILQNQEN

MDA-MB-435 = assay: cells; type: functional, cell-based; conditions: Homo sapiens
cells = type: functional, cell-based; conditions: PPC-1
[14] = target: T3, DNA dC->dU-editing enzyme APOBEC-3A; assay: A3A deaminase inhibition for selectivity – biochemical, dose response (AID 504722); type: functional
[15] = target: T4, DNA dC->dU-editing enzyme APOBEC-3G; assay: Dose Response confirmation of small molecule APOBEC3G DNA Deaminase Inhibitors via a fluorescence-based single-stranded DNA deaminase assay. [Related pubchem assays (depositor defined):AID493012, AID493028]; type: functional
[16] = target: T1, Eukaryotic translation initiation factor 4H; assay: inhibitors of translation initiation factor eIF4H – SAR follow-up (AID 435011); type: functional
[17] = target: T2, Polyadenylate-binding protein 1; assay: PABP inhibition in translation initiation, SAR follow-up (AID 435018); type: functional
[18] = target: Cystic fibrosis transmembrane conductance regulator/Golgi-associated PDZ and coiled-coil motif-containing protein (Homo sapiens, UniProt P13569+Q9HD26); assay: potency against CAL PDZ-peptide interaction – biochemical, fluorescence polarization, Cerulean-tagged CAL PDZ, cherry-picks, dose response (AID 504773)
Sequence of Cystic fibrosis transmembrane conductance regulator/Golgi-associated PDZ and coiled-coil motif-containing protein (P13569 whole entry, other chains not shown): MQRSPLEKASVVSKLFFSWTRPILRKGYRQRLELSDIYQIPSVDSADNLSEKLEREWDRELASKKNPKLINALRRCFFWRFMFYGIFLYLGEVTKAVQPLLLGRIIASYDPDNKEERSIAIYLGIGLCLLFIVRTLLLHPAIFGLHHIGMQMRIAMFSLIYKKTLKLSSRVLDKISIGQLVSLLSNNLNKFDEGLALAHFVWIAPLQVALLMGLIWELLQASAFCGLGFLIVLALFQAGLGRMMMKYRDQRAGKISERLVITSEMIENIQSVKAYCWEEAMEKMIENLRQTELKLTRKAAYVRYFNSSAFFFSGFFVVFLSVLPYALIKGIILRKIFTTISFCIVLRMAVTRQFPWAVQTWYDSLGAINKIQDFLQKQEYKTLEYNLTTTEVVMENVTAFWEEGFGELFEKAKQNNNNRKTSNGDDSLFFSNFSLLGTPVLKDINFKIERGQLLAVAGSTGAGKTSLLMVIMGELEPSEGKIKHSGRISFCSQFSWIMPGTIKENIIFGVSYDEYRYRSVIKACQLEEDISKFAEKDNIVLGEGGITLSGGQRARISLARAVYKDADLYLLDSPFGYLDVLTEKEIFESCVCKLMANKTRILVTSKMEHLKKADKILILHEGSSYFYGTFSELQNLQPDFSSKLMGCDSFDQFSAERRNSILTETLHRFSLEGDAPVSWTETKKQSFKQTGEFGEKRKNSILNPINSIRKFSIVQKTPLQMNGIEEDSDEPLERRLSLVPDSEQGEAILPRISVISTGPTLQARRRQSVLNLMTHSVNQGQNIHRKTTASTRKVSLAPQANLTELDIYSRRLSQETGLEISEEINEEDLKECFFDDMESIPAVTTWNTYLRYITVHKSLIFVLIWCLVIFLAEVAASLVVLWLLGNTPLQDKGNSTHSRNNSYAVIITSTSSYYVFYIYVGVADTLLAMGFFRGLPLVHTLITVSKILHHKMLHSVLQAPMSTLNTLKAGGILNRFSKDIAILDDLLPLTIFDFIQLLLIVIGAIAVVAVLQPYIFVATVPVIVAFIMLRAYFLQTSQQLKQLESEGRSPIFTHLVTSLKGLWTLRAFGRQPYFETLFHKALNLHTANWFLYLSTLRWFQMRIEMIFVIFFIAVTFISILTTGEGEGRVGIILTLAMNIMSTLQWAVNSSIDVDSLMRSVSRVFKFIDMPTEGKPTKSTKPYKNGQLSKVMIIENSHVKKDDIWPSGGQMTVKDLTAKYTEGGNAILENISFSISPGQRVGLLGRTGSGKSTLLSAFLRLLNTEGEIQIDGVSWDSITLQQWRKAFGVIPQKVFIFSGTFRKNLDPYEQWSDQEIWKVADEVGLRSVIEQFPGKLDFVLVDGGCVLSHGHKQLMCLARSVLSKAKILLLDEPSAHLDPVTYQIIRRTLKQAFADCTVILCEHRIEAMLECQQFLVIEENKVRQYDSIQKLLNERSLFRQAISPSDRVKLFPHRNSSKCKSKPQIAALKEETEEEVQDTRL

Importin subunit alpha-1 = Importin subunit alpha-1 (Homo sapiens, UniProt P52292); assay: compounds lowering YIC probe YFP/CFP ratio – biochemical, dry powder samples, FRET, counter-screen for RanGTP-importin-beta inhibitor project, dose response (AID 493094); type: functional

## CCN(CC)C(=O)c1ccc(NC(=O)Nc2ccccc2F)cc1
BJ [1]
  EC50: 4.45 µM (active)
BJ [2]
  EC50: 4.99 µM (active)
[3]
  EC50: 0.225 µM (active)
[4]
  EC50: < 0.701 µM (active)
BJ [5]
  EC50: 9.1 µM (inconclusive)
[6]
  EC50: 3.5 µM (active)
[7]
  AC50: 51.6 µM (active)
[8]
  AC50: 21.1 µM (active)
HEK293
  AC50: 2.08 µM (active)
BJ [9]
  EC50: > 133 µM (inactive)

## COc1cccc(NC(=O)c2ccc[n+](C)c2)c1
[10]
  IC50: > 100 µM (inactive)
[11]
  IC50: 4.86 µM (active)
[12]
  IC50: 2.33 µM (active)
[13]
  IC50: 2.22 µM (active)

## CCSc1nc(O)cc(-c2ccccc2)n1
MDA-MB-435
  IC50: > 10 µM (inactive)
cells
  IC50: > 10 µM (inactive)

## Cc1cccc(C)c1OCc1nnc(S)n1N
[14]
  IC50: > 100 µM (inactive)
[15]
  IC50: 5.83 µM (active)

## COc1cc(/C=N/NC(=O)c2ccccc2O)ccc1OCC(=O)Nc1ccc([N+](=O)[O-])cc1
[16]
  IC50: > 100 µM (inactive)
[17]
  IC50: > 100 µM (inactive)

## O=C1C=C(c2ccccc2)C(c2ccccc2)C1 (configuration not stated)
[18]
  AC50: 17 µM (active)

## Cc1cccc(C)c1NC(=O)C1C(=O)c2sccc2N(C)S1(=O)=O (configuration not stated)
Importin subunit alpha-1
  AC50: 273 µM (active)
